In the NIST ThermoML archive (doi:10.1021/je060271a):

Settings: Liquid, Vibrating tube method

CCCCCC(=O)OCC(COC(=O)CCCCC)(COC(=O)CCCCC)COC(=O)CCCCC [pentaerythritol tetrahexanoate]
Settings | mass density [kg/m3]
303.17 K, 1567.2 kPa | 989.3
303.17 K, 1583.5 kPa | 989.4
303.17 K, 1597.3 kPa | 989.4
303.17 K, 1611.3 kPa | 989.4
303.17 K, 1628.3 kPa | 989.5
303.17 K, 5535.7 kPa | 992
303.17 K, 5553.1 kPa | 991.9
303.17 K, 5573.9 kPa | 992
303.17 K, 17353 kPa | 999.2
303.17 K, 32996 kPa | 1008
303.17 K, 33019 kPa | 1007.9
303.17 K, 33039 kPa | 1007.9
303.17 K, 33058 kPa | 1008
303.17 K, 33082 kPa | 1008.1
303.17 K, 33102 kPa | 1007.9
303.17 K, 33125 kPa | 1008
303.17 K, 33145 kPa | 1008
303.17 K, 33165 kPa | 1007.9
323.14 K, 384.5 kPa | 973
323.14 K, 386.4 kPa | 972.9
323.14 K, 388.7 kPa | 972.8
323.14 K, 391.1 kPa | 972.8
323.14 K, 393.7 kPa | 972.9
323.14 K, 396.7 kPa | 972.9
323.14 K, 398.7 kPa | 973
323.14 K, 401.3 kPa | 973
323.14 K, 403.6 kPa | 972.9
323.14 K, 406.6 kPa | 972.9
323.14 K, 408.8 kPa | 972.9
323.14 K, 411.4 kPa | 973
323.14 K, 414.9 kPa | 972.9
323.14 K, 417.5 kPa | 972.8
323.14 K, 420.5 kPa | 972.9
323.14 K, 423.2 kPa | 973
323.14 K, 426 kPa | 972.9
323.14 K, 429.2 kPa | 972.9
323.14 K, 431.6 kPa | 972.9
323.14 K, 434.7 kPa | 973.1
323.14 K, 438 kPa | 972.9
323.14 K, 440.8 kPa | 972.9
323.14 K, 477.3 kPa | 972.9
323.14 K, 481.1 kPa | 973
323.14 K, 484.4 kPa | 972.9
323.14 K, 488.9 kPa | 972.9
323.14 K, 492.6 kPa | 973
323.14 K, 495.7 kPa | 973
323.14 K, 499.5 kPa | 973
323.14 K, 503.9 kPa | 973
323.14 K, 507.5 kPa | 973.1
323.14 K, 512.4 kPa | 973.1
323.14 K, 516.2 kPa | 973
323.14 K, 645.8 kPa | 973.2
323.14 K, 648.1 kPa | 973.1
323.14 K, 650 kPa | 973
323.14 K, 652.6 kPa | 973.1
323.14 K, 654.5 kPa | 973.1
323.14 K, 657.1 kPa | 972.9
323.14 K, 686.8 kPa | 973.3
323.14 K, 689.8 kPa | 973
323.14 K, 692.2 kPa | 973.1
323.14 K, 694.8 kPa | 973.3
323.14 K, 697.1 kPa | 973.2
323.14 K, 763.3 kPa | 973.2
323.14 K, 801.5 kPa | 973.1
323.14 K, 803.8 kPa | 973.2
323.14 K, 807.1 kPa | 973.2
323.14 K, 809.5 kPa | 973.2
323.14 K, 812.1 kPa | 973.3
323.14 K, 858.7 kPa | 973.2
323.14 K, 862.3 kPa | 973.3
323.14 K, 865.1 kPa | 973.2
323.14 K, 867.7 kPa | 973.2
323.14 K, 916.7 kPa | 973.3
323.14 K, 923.3 kPa | 973.2
323.14 K, 1440.1 kPa | 973.7
323.14 K, 1446.1 kPa | 973.7
323.14 K, 1451.7 kPa | 973.5
323.14 K, 1458.6 kPa | 973.7
323.14 K, 1465.1 kPa | 973.6
323.14 K, 1499.4 kPa | 973.7
323.14 K, 2143.7 kPa | 974.1
323.14 K, 2154.2 kPa | 974.2
323.14 K, 2163.4 kPa | 974.2
323.14 K, 2899 kPa | 974.7
323.14 K, 2935.4 kPa | 974.6
323.14 K, 2971.1 kPa | 974.8
323.14 K, 2984.1 kPa | 974.9
323.14 K, 2995.2 kPa | 974.8
323.14 K, 3008.5 kPa | 974.8
323.14 K, 3019.8 kPa | 974.7
323.14 K, 3032.8 kPa | 974.8
323.14 K, 3043.7 kPa | 974.8
323.14 K, 3057.4 kPa | 974.8
323.14 K, 3071.1 kPa | 974.7
323.14 K, 3082.4 kPa | 974.9
323.14 K, 3093.6 kPa | 974.9
323.14 K, 3107.5 kPa | 974.7
323.14 K, 3120.8 kPa | 974.9
323.14 K, 3132.5 kPa | 975
323.14 K, 3143.7 kPa | 975
323.14 K, 3157.8 kPa | 974.8
323.14 K, 3169 kPa | 974.9
323.14 K, 3182.6 kPa | 974.9
323.14 K, 3194.3 kPa | 974.9
323.14 K, 3207.9 kPa | 974.9
323.14 K, 3219.3 kPa | 975.1
323.14 K, 3233.3 kPa | 974.9
323.14 K, 3245.1 kPa | 974.9
323.14 K, 3259.7 kPa | 974.9
323.14 K, 3271.8 kPa | 975
323.14 K, 3285.5 kPa | 975
323.14 K, 3298 kPa | 974.9
323.14 K, 3312.4 kPa | 975
323.14 K, 3324.7 kPa | 975.1
323.14 K, 3339.9 kPa | 975.1
323.14 K, 3353.1 kPa | 975
323.14 K, 3384.1 kPa | 975
323.14 K, 3463.3 kPa | 975.1
323.14 K, 3495.4 kPa | 975.1
323.14 K, 4052.6 kPa | 975.6
323.14 K, 4071.6 kPa | 975.6
323.14 K, 4087 kPa | 975.6
323.14 K, 4103.5 kPa | 975.6
323.14 K, 4122.2 kPa | 975.5
323.14 K, 4176.9 kPa | 975.4
323.14 K, 4193.2 kPa | 975.6
323.14 K, 4530.6 kPa | 975.9
323.14 K, 4548.8 kPa | 975.8
323.14 K, 4570.3 kPa | 975.9
323.14 K, 4588.6 kPa | 975.9
323.14 K, 4610.6 kPa | 976
323.14 K, 4632.6 kPa | 975.9
323.14 K, 4650.7 kPa | 976
323.14 K, 4669.3 kPa | 975.9
323.14 K, 4691.8 kPa | 975.9
323.14 K, 4714.6 kPa | 975.9
323.14 K, 4733.6 kPa | 976
323.14 K, 4753.2 kPa | 975.9
323.14 K, 4776.2 kPa | 975.9
323.14 K, 4795.8 kPa | 976.1
323.14 K, 4819.1 kPa | 975.9
323.14 K, 4838.9 kPa | 976.1
323.14 K, 4862.6 kPa | 976.2
323.14 K, 4886.4 kPa | 976.1
